Measurements from patent US8258176B2, “Dithiolopyrrolone compounds, the preparation and the use thereof” (Shanghai Institute of Pharmaceutical Industry, priority 2007, dated 2012).
Read-outs that look alike come from different tables or passages of the source.

B1: G-CSF: granulocyte colony-stimulating factor, SAIGELI, Shanghai Sunway Biotech Co., Ltd.; positive control (protein, UniProt P09919 31-207, looked up)
Granulocyte …: TPLGPASSLPQSFLLKCLEQVRKIQGDGAALQEKLVSECATYKLCHPEELVLLGHSLGIPWAPLSSCPSQALQLAGCLSQLHSGLFLYQGLLQALEGISPELGPTLDTLQLDVADFATTIWQQMEELGMAPALQPTQGAMPAFASAFQRRAGGVLVASHLQSFLEVSYRVLRHLAQP

Legend:
[1] = test system: peripheral blood leukocytes of normal mice; experiment: Effects on peripheral blood leukocytes of normal mice (peripheral blood routine test); assay type: in vivo; settings: G-CSF 22.5 ug/kg sc once a day
Excerpt: Animal hematology analyzer, model: HEMAVET950 • 2. Method
The mice were divided into blank control group, positive control group and the dithiolopyrrolone series of compounds group, there are 10 mice in each group.

[2] = test system: peripheral blood leukocytes of model mice; settings: for NE % (percentage of neutrophils in the total number of white blood cells) / WBC count: CTX model mice
Protocol: Sample: series of dithiolopyrrolone compounds were dissolved in 0.5% CMC—Na to be suspension after grinding with Tween (less than 4% usage).
Cyclophosphamide for Injection (CTX), Shanghai Hualian Pharmaceutical Co., Ltd., batch number: 050606, prepared of being dissolved in saline.
SAIGELI (G-CSF), Shanghai Sunway Biotech Co., Ltd., batch number: 051001
Animal blood analyzer, model: HEMAVET950 • 2. Method
40 BALB/c mice, were randomly divided into five groups, blank control group, positive control (G-CSF) group (22.5 ug/kg), and two dithiolopyrrolone derivatives groups (compounds 001 and 004, 20 mg/kg), CTX model group (100 mg/kg), respectively with 8 mice in each group. rThe blank control group wasn't treated in any way, the other four groups were treated with CTX intraperitoneal injection, 100 mg/kg, once a day. […] G-CSF group was given G-CSF (22.5 ug/kg) subcutaneously once a day, one day after the completing of the injection of CTX. Dithiolopyrrolone derivatives groups were administered with dithiolopyrrolone derivatives (20 mg/kg), through gavaging once a day (0.5 ml), one day after the completing of the injection of CTX. The mice of model group and blank control group were administered with an equivalent 0.5% CMC—Na solution through gavaging.
Blood specimens were collected according to conventional method via the mice orbital vein, on the 0, 4, 6, 8 day respectively, when the day of administering CTX is set as the first day, then the peripheral blood routine test was carried out, and the effect of series of dithiolopyrrolone compounds on peripheral blood leukocytes of normal mice was analyzed. • 3. Results

[3] = test system: bone marrow granulocyte series; experiment: Bone marrow smear microscopic examination of CTX model mice; assay type: in vivo, BALB/c mice; settings: bone marrow smear after treatment
[4] = day 0 (before administration), compounds 20 mg/kg ig once a day
[5] = day 3, compounds 20 mg/kg ig once a day
[6] = day 5, compounds 20 mg/kg ig once a day
[7] = day 0 (before CTX 100 mg/kg ip x 3 days)
[8] = day 4, CTX 100 mg/kg ip days 1-3, compounds 20 mg/kg ig, G-CSF 22.5 ug/kg sc once a day from one day after CTX
[9] = day 6, CTX 100 mg/kg ip days 1-3, compounds 20 mg/kg ig, G-CSF 22.5 ug/kg sc once a day from one day after CTX
[10] = day 8, CTX 100 mg/kg ip days 1-3, compounds 20 mg/kg ig, G-CSF 22.5 ug/kg sc once a day from one day after CTX

Row | Molecule | NE % (percentage of neutrophils in the total number of white blood cells) [1, 4] | WBC count [1, 4] | NE % (percentage of neutrophils in the total number of white blood cells) [1, 5] | WBC count [1, 5] | NE % (percentage of neutrophils in the total number of white blood cells) [1, 6] | WBC count [1, 6] | NE % (percentage of neutrophils in the total number of white blood cells) [2, 7] | WBC count [2, 7] | NE % (percentage of neutrophils in the total number of white blood cells) [2, 8] | WBC count [2, 8] | NE % (percentage of neutrophils in the total number of white blood cells) [2, 9] | WBC count [2, 9] | NE % (percentage of neutrophils in the total number of white blood cells) [2, 10] | WBC count [2, 10] | granulocyte series in bone marrow smear (microscopic examination) [3] | total number of white blood cells and percentage of neutrophils after CTX ([2]; CTX 100 mg/kg ip once a day, after three days of administration)
1 | COc1ccc(-n2c3cssc-3c(NC(=O)Oc3ccccc3)c2=O)c(OC)c1 [compound 001] | 33.73% | 7.89e+09 L⁻¹ | 67.44% | 1.824e+10 L⁻¹ | 72.13% | 2.496e+10 L⁻¹ | 27.32% | 5.98e+09 L⁻¹ | 2.48% | 1.21e+09 L⁻¹ | 42.71% | 2.75e+09 L⁻¹ | 76.84% | 1.844e+10 L⁻¹ | significant hyperplasia and speeding up of the differentiation and maturation | 
2 | O=P1(N(CCCl)CCCl)NCCCO1 (stereo not shown) [CTX, Cyclophosphamide, reference compound] |  |  |  |  |  |  | 28.46% | 5.88e+09 L⁻¹ | 3.33% | 1.34e+09 L⁻¹ | 6.7% | 1.2e+09 L⁻¹ | 38.32% | 5.7e+09 L⁻¹ | severely inhibited | significantly decreased
3 | CCOC(=O)Nc1c2sscc-2n(-c2ccc(OC)cc2OC)c1=O [compound 004] | 31.56% | 7.65e+09 L⁻¹ | 56.36% | 1.336e+10 L⁻¹ | 78.24% | 1.866e+10 L⁻¹ | 18.65% | 5.86e+09 L⁻¹ | 4.34% | 1.11e+09 L⁻¹ | 36.47% | 1.42e+09 L⁻¹ | 87.62% | 1.528e+10 L⁻¹ | significant hyperplasia and speeding up of the differentiation and maturation | 
4 | B1 | 25.39% | 6.74e+09 L⁻¹ | 57.86% | 1.748e+10 L⁻¹ | 60.68% | 1.922e+10 L⁻¹ | 30.34% | 5.92e+09 L⁻¹ | 4.58% | 1.14e+09 L⁻¹ | 30.07% | 1.84e+09 L⁻¹ | 59.68% | 1.54e+10 L⁻¹ | significant hyperplasia and speeding up of the differentiation and maturation | 
